Laboratory results published in patent US10570184B2, “GLP-1/glucagon receptor co-agonists for medical use” (Novo Nordisk A/S, priority 2014, dated 2020).
Starred links: 1 amine or outer side, 2 acyl side, 3 side chain; linkers in the order of their positions; H or OH if unused. Non-standard residues stand in square brackets, D forms with d. Residues, ends and D or L forms follow the SMILES beside them. Groups on a side chain read outwards from the residue. *: point of attachment. C18 diacid = O=C(O)CCCCCCCCCCCCCCCCC(=O)*; γGlu = O=C(O)[C@H](CCC(=O)[*:2])N[*:1]; AEEA = NCCOCCOCC(=O)O; Aib = CC(C)(N)C(=O)O

Tests used:
[1] = Assay (III) ThT fibrillation assay for physical stability; assay type: physicochemical; details: 250 μM in 10 mM HEPES buffer, 37° C., shaking 960 rpm
How it was run: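 Glucagon derivative at 250 μM in 10 mM HEPES pH 7.5 with 1 μM ThT was incubated at 37 °C under 960 rpm orbital shaking. Fluorescence (ex 444/em 485 nm) was read every 20 min and fitted for lag time (t0−2τ) and kapp (1/τ). Recovery was soluble peptide after centrifugation/filtration, by RP-HPLC, as percent of initial.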

human GLP-1 receptor = target: T1, human GLP-1 receptor (Homo sapiens, UniProt P43220); experiment: Assay (I)(a) GLP-1 receptor activation, CRE luciferase reporter gene assay in BHK cells; assay type: cell-based; details: without presence of serum albumin; read-out: GLP-1R EC50 (pM) [Assay (I)(a)]
T1 construct: expressed in transfected cells; host or cells: membranes of BHK cells (parent BHKTS13), clone FCW467-12A
How it was run: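 Stable BHK clone expressing human GLP-1 receptor with CRE-driven firefly luciferase, 5×10EE3 cells/well in medium with 2% ovalbumin and 0.2% Pluronic F-68. Compounds at 1×10EE-13 to 1×10EE-6 M final, 3 h at 37° C.; luminescence read, EC50 (pM) from four-parameter fit.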

T1 sequence (P43220 24-463): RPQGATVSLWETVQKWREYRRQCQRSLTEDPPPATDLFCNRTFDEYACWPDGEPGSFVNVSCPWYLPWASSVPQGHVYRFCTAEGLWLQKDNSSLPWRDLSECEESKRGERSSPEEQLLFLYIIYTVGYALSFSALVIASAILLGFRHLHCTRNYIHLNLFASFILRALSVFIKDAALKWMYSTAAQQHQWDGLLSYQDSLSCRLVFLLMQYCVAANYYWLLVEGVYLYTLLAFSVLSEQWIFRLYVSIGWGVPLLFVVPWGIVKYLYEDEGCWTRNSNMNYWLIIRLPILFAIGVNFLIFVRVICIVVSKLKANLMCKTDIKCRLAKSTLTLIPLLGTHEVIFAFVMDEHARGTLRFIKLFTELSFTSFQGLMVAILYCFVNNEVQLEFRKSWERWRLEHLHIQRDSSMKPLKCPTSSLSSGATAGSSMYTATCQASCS

Question: With `CC[C@H](C)[C@H](NC(=O)[C@H](CC(C)C)NC(=O)[C@H](Cc1c[nH]c2ccccc12)NC(=O)[C@H](CCC(N)=O)NC(=O)[C@@H](NC(=O)[C@H](Cc1ccccc1)NC(=O)[C@H](CC(=O)O)NC(=O)[C@H](CCCNC(=N)N)NC(=O)[C@H](C)NC(=O)[C@H](CCCNC(=N)N)NC(=O)[C@H](CCCNC(=N)N)NC(=O)[C@H](C)NC(=O)[C@H](CC(=O)O)NC(=O)[C@H](CC(C)C)NC(=O)[C@H](Cc1ccc(O)cc1)NC(=O)[C@H](CCCCN)NC(=O)[C@H](CO)NC(=O)[C@H](CC(C)C)NC(=O)[C@H](CC(=O)O)NC(=O)[C@H](CO)NC(=O)[C@@H](NC(=O)[C@H](Cc1ccccc1)NC(=O)[C@@H](NC(=O)CNC(=O)[C@H](CCC(N)=O)NC(=O)C(C)(C)NC(=O)[C@@H](N)Cc1c[nH]cn1)[C@@H](C)O)[C@@H](C)O)C(C)C)C(=O)N[C@@H](CO)C(=O)N[C@@H](CCCCNC(=O)CC[C@H](NC(=O)CC[C@H](NC(=O)COCCOCCNC(=O)COCCOCCNC(=O)CC[C@H](NC(=O)CCCCCCCCCCCCCCCCC(=O)O)C(=O)O)C(=O)O)C(=O)O)C(N)=O` [Chem. 27, N^ε29-[(4S)-4-carboxy-4-[[(4S)-4-carboxy-4-[[2-[2-[2-[[2-[2-[2-[[(4S)-4-carboxy-4-(17-carboxyheptadecanoylamino)butanoyl]amino]ethoxy]ethoxy]acetyl]amino]ethoxy]ethoxy]acetyl]amino]butanoyl]amino]butanoyl]-[Aib2,Leu10,Ala16,Arg20,Ile27,Ser28,Lys29]-Glucagon amide] (H-H[Aib]QGTFTSDLSKYLDARRARDFVQWLISK([γGlu-γGlu-AEEA-AEEA-γGlu-C18 diacid])-NH2; N-terminus assumed) as the molecule, how does the “ThT Assay Lag time (h) [Assay (III), pH 7.5]” value [1] read?
Answer: The value was 45.0 h.

Question: What about the EC50 (human GLP-1 receptor) of the same molecule?
Answer: The EC50 was 3 pM.

Question: For `CC[C@H](C)[C@H](NC(=O)[C@H](CC(C)C)NC(=O)[C@H](Cc1c[nH]c2ccccc12)NC(=O)[C@H](CCC(N)=O)NC(=O)[C@@H](NC(=O)[C@H](Cc1ccccc1)NC(=O)[C@H](CCC(=O)O)NC(=O)[C@H](CCCNC(=N)N)NC(=O)[C@H](C)NC(=O)[C@H](CCCNC(=N)N)NC(=O)[C@H](CCCNC(=N)N)NC(=O)[C@H](C)NC(=O)[C@H](CC(=O)O)NC(=O)[C@H](CC(C)C)NC(=O)[C@H](Cc1ccc(O)cc1)NC(=O)[C@H](CCCCN)NC(=O)[C@H](CO)NC(=O)[C@H](CC(C)C)NC(=O)[C@H](CC(=O)O)NC(=O)[C@H](CO)NC(=O)[C@@H](NC(=O)[C@H](Cc1ccccc1)NC(=O)[C@@H](NC(=O)CNC(=O)[C@H](CCC(N)=O)NC(=O)C(C)(C)NC(=O)[C@@H](N)Cc1c[nH]cn1)[C@@H](C)O)[C@@H](C)O)C(C)C)C(=O)N[C@@H](CO)C(=O)N[C@@H](CCCCNC(=O)CC[C@H](NC(=O)CC[C@H](NC(=O)COCCOCCNC(=O)COCCOCCNC(=O)CC[C@H](NC(=O)CCCCCCCCCCCCCCCCC(=O)O)C(=O)O)C(=O)O)C(=O)O)C(N)=O` [Chem. 28, N^ε29-[(4S)-4-carboxy-4-[[(4S)-4-carboxy-4-[[2-[2-[2-[[2-[2-[2-[[(4S)-4-carboxy-4-(17-carboxyheptadecanoylamino)butanoyl]amino]ethoxy]ethoxy]acetyl]amino]ethoxy]ethoxy]acetyl]amino]butanoyl]amino]butanoyl]-[Aib2,Leu10,Ala16,Arg20,Glu21,Ile27,Ser28,Lys29]-Glucagon amide] (H-H[Aib]QGTFTSDLSKYLDARRAREFVQWLISK([γGlu-γGlu-AEEA-AEEA-γGlu-C18 diacid])-NH2; N-terminus assumed), which “ThT Assay Lag time (h) [Assay (III), pH 7.5]” value [1] is on record?
Answer: The value was 45.0 h.

Question: What about the EC50 (human GLP-1 receptor) of the same molecule?
Answer: Its EC50 is 3 pM.

Question: What does the source list for `CC[C@H](C)[C@H](NC(=O)[C@H](CC(C)C)NC(=O)[C@H](Cc1c[nH]c2ccccc12)NC(=O)[C@H](C)NC(=O)[C@@H](NC(=O)[C@H](Cc1ccccc1)NC(=O)[C@H](CC(=O)O)NC(=O)[C@H](CCCNC(=N)N)NC(=O)[C@H](C)NC(=O)[C@H](CCCNC(=N)N)NC(=O)[C@H](CCCNC(=N)N)NC(=O)[C@H](C)NC(=O)[C@H](CC(=O)O)NC(=O)[C@H](CC(C)C)NC(=O)[C@H](Cc1ccc(O)cc1)NC(=O)[C@H](CCCCN)NC(=O)[C@H](CO)NC(=O)[C@H](Cc1ccc(O)cc1)NC(=O)[C@H](CC(=O)O)NC(=O)[C@H](CO)NC(=O)[C@@H](NC(=O)[C@H](Cc1ccccc1)NC(=O)[C@@H](NC(=O)CNC(=O)[C@H](CCC(N)=O)NC(=O)C(C)(C)NC(=O)[C@@H](N)Cc1c[nH]cn1)[C@@H](C)O)[C@@H](C)O)C(C)C)C(=O)N[C@@H](CCCCNC(=O)CC[C@H](NC(=O)CC[C@H](NC(=O)COCCOCCNC(=O)COCCOCCNC(=O)CC[C@H](NC(=O)CCCCCCCCCCCCCCCCC(=O)O)C(=O)O)C(=O)O)C(=O)O)C(=O)N[C@H](C(N)=O)[C@@H](C)O` [Chem. 32, N^ε28-[(4S)-4-carboxy-4-[[(4S)-4-carboxy-4-[[2-[2-[2-[[2-[2-[2-[[(4S)-4-carboxy-4-(17-carboxyheptadecanoylamino)butanoyl]amino]ethoxy]ethoxy]acetyl]amino]ethoxy]ethoxy]acetyl]amino]butanoyl]amino]butanoyl]-[Aib2,Ala16,Arg20,Ala24,Ile27,Lys28]-Glucagon amide] (H-H[Aib]QGTFTSDYSKYLDARRARDFVAWLIK([γGlu-γGlu-AEEA-AEEA-γGlu-C18 diacid])T-NH2)?
Answer: ThT Assay Lag time (h) [Assay (III), pH 7.5] [1]: 45.0 h; EC50 (human GLP-1 receptor): 2 pM

Question: Which results are given for `CC[C@H](C)[C@H](NC(=O)[C@H](CC(C)C)NC(=O)[C@H](Cc1c[nH]c2ccccc12)NC(=O)[C@H](C)NC(=O)[C@@H](NC(=O)[C@H](Cc1ccccc1)NC(=O)[C@H](CC(=O)O)NC(=O)[C@H](CCC(N)=O)NC(=O)[C@H](C)NC(=O)[C@H](CCCNC(=N)N)NC(=O)[C@H](CCCNC(=N)N)NC(=O)[C@H](CO)NC(=O)[C@H](CCC(=O)O)NC(=O)[C@H](CC(C)C)NC(=O)[C@H](Cc1ccc(O)cc1)NC(=O)[C@H](CCCCN)NC(=O)[C@H](CO)NC(=O)[C@H](Cc1ccc(O)cc1)NC(=O)[C@H](CC(=O)O)NC(=O)[C@H](CO)NC(=O)[C@@H](NC(=O)[C@H](Cc1ccccc1)NC(=O)[C@@H](NC(=O)CNC(=O)[C@H](CCC(N)=O)NC(=O)C(C)(C)NC(=O)[C@@H](N)Cc1c[nH]cn1)[C@@H](C)O)[C@@H](C)O)C(C)C)C(=O)N[C@@H](CCCCNC(=O)CC[C@H](NC(=O)CC[C@H](NC(=O)COCCOCCNC(=O)COCCOCCNC(=O)CC[C@H](NC(=O)CCCCCCCCCCCCCCCCC(=O)O)C(=O)O)C(=O)O)C(=O)O)C(=O)N[C@H](C(N)=O)[C@@H](C)O` [Chem. 34, N^ε28-[(4S)-4-carboxy-4-[[(4S)-4-carboxy-4-[[2-[2-[2-[[2-[2-[2-[[(4S)-4-carboxy-4-(17-carboxyheptadecanoylamino)butanoyl]amino]ethoxy]ethoxy]acetyl]amino]ethoxy]ethoxy]acetyl]amino]butanoyl]amino]butanoyl]-[Aib2,Glu15,Ala24,Ile27,Lys28]-Glucagon amide] (H-H[Aib]QGTFTSDYSKYLESRRAQDFVAWLIK([γGlu-γGlu-AEEA-AEEA-γGlu-C18 diacid])T-NH2)?
Answer: ThT Assay Lag time (h) [Assay (III), pH 7.5] [1]: 45.0 h; EC50 (human GLP-1 receptor): 3 pM
